Laboratory results from PubChem BioAssay AID489032 (Sanford-Burnham Center for Chemical Genomics, 2010).
Calls of active or inactive are those of the source. No rule for the calls is given here.

What follows are compounds tested on UPR adaptive arm reporter cells, luciferase luminescence (assay: activators of adaptive UPR signalling, dose response, cell-based, luciferase luminescence (AID 489032)).

SMILES	EC50
CCCn1c(SCc2nc3sc(C)c(C)c3c(=O)[nH]2)nc2ccccc2c1=O	72 µM (inactive)
COc1ccc2oc(-c3ccc(C)c(NC(=O)c4ccc(N5CCOCC5)c([N+](=O)[O-])c4)c3)nc2c1	> 80 µM (inactive)
COc1ccccc1-c1sc2cc3c(cc2c1-c1ccc(OCCN2CCCCC2)cc1)OCO3	> 80 µM (inactive)
CCC(Sc1nnc2c3ccccc3n(CC)c2n1)C(=O)Nc1sc2c(c1C#N)CCCC2 (stereo not given)	16.5 µM
NC1=NC[C@@H](CC2CCCCC2)N1CCc1cc(C(F)(F)F)cc(C(F)(F)F)c1	> 80 µM (inactive)
CCCCCCCCCCOC(=O)Cn1c(COc2ccc(OC)cc2)[n+](C)c2ccccc21	> 80 µM (inactive)
O=C1NC(=O)N(Cc2ccccc2)C(=O)/C1=C\c1ccco1	> 80 µM (inactive)
C/C(=N/Nc1cc(-c2ccccc2)nc(-c2ccccc2)n1)c1ccc(O)cc1	19.9 µM
Cn1c(Cl)cnc1C1CC(=O)c2cc(Cl)ccc2O1 (stereo not given)	18.9 µM
CC(C)c1ccc(C2C3=C(COC3=O)Nc3cc4c(cc32)OCO4)cc1 (stereo not given)	48.9 µM (inactive)
CC(C)(C)C(=O)NC(=S)NNC(=O)c1ccc(-c2ccccc2)cc1	9.38 µM
CCC(=O)Nc1ccc(-c2cc(-c3ccccc3)nc(-c3ccc(NC(=O)CC)cc3)n2)cc1	> 80 µM (inactive)
O=C(N/N=C/c1ccc(O)c(O)c1)c1ccc(CSc2cccc3cccnc23)cc1	> 80 µM (inactive)
COc1ccc(-c2ccc3c(c2)S(=O)(=O)c2cccc(C(=O)NCCOc4ccccc4Cl)c2C3=O)cc1OC	> 80 µM (inactive)
Cc1cc(NC(=O)CSc2nc3sc(C)c(C)c3c(=O)n2C2CCCC2)no1	> 80 µM (inactive)
COC(=O)c1c(C)oc2ccc(N(C(=O)Oc3ccccc3)S(=O)(=O)c3ccc(Cl)c([N+](=O)[O-])c3)cc12	20.1 µM (inactive)
O=C1NC(=O)N(Cc2ccccc2Cl)C(=O)/C1=C/c1cccs1	> 80 µM (inactive)
CC(C)N(C(=O)[C@H]1C[C@H](CC(=O)NCc2cccc(C(F)(F)F)c2)C(=O)N2CCc3c([nH]c4ccc(Cl)cc34)[C@]12C)C(C)C	> 80 µM (inactive)
C#CCn1c(=NC(=O)c2ccc(Br)s2)sc2cccc(OC)c21	> 80 µM (inactive)
COc1ccc(-c2nc3scc(-c4ccc(OC)c(OC)c4)c3c(=O)o2)cc1	> 80 µM (inactive)
C/C(CC(C)(C)C1CCCCC1)=N\NC(N)=S	> 80 µM (inactive)
CN(C)CCCNC(=O)c1ccc(-c2nc(-c3ccc(Cl)cc3)cs2)cc1	> 80 µM (inactive)
Brc1cc(Br)c2ncnc(N3CCCCC3)c2c1	44.5 µM (inactive)

SMILES	EC50
N#Cc1c(-c2ccc3c(c2)OCO3)ccn2nc(-c3cccc(C(F)(F)F)c3)nc12	> 80 µM (inactive)
COc1cc2[nH]c3c(N4CCN(c5ccc(Cl)cc5)CC4)ncnc3c2cc1OC	> 80 µM (inactive)
Cc1nn(-c2ccccc2)c(C)c1/C=N/NC(=O)CSc1nc2ccccc2c(=O)n1-c1ccc(Br)cc1	35.7 µM (inactive)
COc1cc(/C=N/Nc2nc(Nc3ccccc3)nc(-n3nc(C)cc3C)n2)cc(OC)c1OC	> 80 µM (inactive)
CCC(C)Nc1nc(N)c([N+](=O)[O-])c(NC2CCCCC2)n1 (stereo not given)	55.9 µM (inactive)
CCOc1cccc(C(=O)Nc2cccc(-c3nnc(-c4ccc(C)cc4)o3)c2)c1	> 80 µM (inactive)
Cc1ccc(-c2[nH]ncc2/C=N/n2c(COc3ccccc3)nc3ccccc3c2=O)cc1	> 80 µM (inactive)
CCC(=O)Nc1nnc(SCC(=O)c2ccc3c(c2)Cc2ccccc2-3)s1	> 80 µM (inactive)
Cc1ccc(NC(=O)COc2ccc(/C=C3/SC(=Nc4ccccc4)N(Cc4cccnc4)C3=O)cc2)cc1	34.4 µM (inactive)
NS(=O)(=O)c1ccc(N=Cc2c(O)n(C3CCCCC3)c(=O)n(C3CCCCC3)c2=O)cc1	> 80 µM (inactive)
CCOC(=O)c1c(-c2ccc(C)o2)csc1NC(=O)COC(=O)c1ccc(NC(N)=O)cc1	> 80 µM (inactive)
COc1ccc2cc1Oc1ccc(cc1)C[C@H]1c3c(cc(OC)c4c3Oc3c(ccc5c3[C@H](C2)N(C)CC5)O4)CCN1C	> 80 µM (inactive)
COc1ccc2c(c1)[nH]c1c(=O)n(/N=C/C3C(C)C=C(C)CC3C)c(=O)[nH]c12 (stereo not given)	65.8 µM (inactive)
COc1ccc(NC(=O)CSc2nc3ccc(Nc4nc(N5CCOCC5)nc(N5CCOCC5)n4)cc3s2)cc1	> 80 µM (inactive)
O=C(NCCCn1ccnc1)c1nn2c(C(F)(F)F)cc(-c3ccc(Br)cc3)nc2c1Cl	21.6 µM (inactive)
Cc1nc2cc(NC(=O)CSc3nc4c(C)cccc4cc3C#N)ccc2s1	> 80 µM (inactive)
O=C(O)c1ccc(N2C(=O)/C(=C/c3ccc(-c4ccc([N+](=O)[O-])cc4)o3)C=C2c2ccccc2)cc1	> 80 µM (inactive)
Cc1cc(C)c2c(CCl)cc(=O)oc2c1	> 80 µM (inactive)
CCOC(=O)C(=CNc1nc(-c2ccccc2)c(C(=O)Nc2ccc(-c3ccccc3)cc2)s1)C(=O)OCC	24.7 µM (inactive)
CCOC(=O)c1nnc(-c2ccccc2)nc1Sc1ccccc1Cl	> 80 µM (inactive)
c1ccc(Oc2c3ccccc3nc3ccccc23)cc1	> 80 µM (inactive)
Cn1nc(C(F)(F)F)c(/C=N/OC(=O)c2ccccc2)c1SCc1ccc(Cl)cc1	35.5 µM (inactive)
